# Experiments:
# [1] = Solubility of the compound of Formula (1) in various solvents (excess compound, shaking, HPLC); format: physicochemical; details: for solubility at 24 h: thermodynamic from solid
# Description: An excess amount of the compound of Formula (1) was added to 1 mL of each solvent described in Table 1 below and stirred for 24 hours at 25° C. while shaking at 200 rpm (Shaking incubator, SI 600R, JEIO TECH, Korea). Thereafter, a centrifugation was performed at 10,000 rpm for 10 minutes, and the supernatant was filtered using a membrane filter (0.2 μm), then diluted moderately with methanol and analyzed by HPLC.
# [2] = as above; format: physicochemical
structure (smiles),measurement,setting,value
"CCCc1nc(C(F)(F)F)ccc1/C=C/C(=O)N[C@H](C)c1cc(F)c(NS(C)(=O)=O)c(F)c1 [compound of Formula (1), (R)—N-[1-(3,5-difluoro-4-methanesulfonylamino-phenyl)-ethyl]-3-(2-propyl-6-trifluoromethyl-pyridin-3-yl)-acrylamide]",solubility at 24 h,"[1]; 25 °C, organic solvent or mixture, in dimethyl sulfoxide, diethylene glycol monoethyl ether, 2-pyrrolidone and polyethylene glycol (summary of Table 1)",≥ 100 mg/mL
same,solubility at 24 h,"[1]; oil or lipid, in Cocoyl caprylocaprate, 25° C., 24 hours",0.46 mg/mL
same,solubility at 24 h,"[1]; oil or lipid, in Corn oil, 25° C., 24 hours",1.8 mg/mL
same,solubility at 24 h,"[1]; oil or lipid, in Ethyl oleate, 25° C., 24 hours",1 mg/mL
same,solubility at 24 h,"[1]; oil or lipid, in Isopropyl myristate, 25° C., 24 hours",1.18 mg/mL
same,solubility at 24 h,"[1]; oil or lipid, in Miglyol, 25° C., 24 hours",1.4 mg/mL
same,solubility at 24 h,"[1]; oil or lipid, in Octyldodecanol, 25° C., 24 hours",1.77 mg/mL
same,solubility at 24 h,"[1]; oil or lipid, in Oleic acid, 25° C., 24 hours",0.43 mg/mL
same,solubility at 24 h,"[1]; oil or lipid, in Oleyl Alcohol, 25° C., 24 hours",6.32 mg/mL
same,solubility at 24 h,"[1]; oil or lipid, in Propylene glycol monocaprylate, 25° C., 24 hours",75 mg/mL
same,solubility at 24 h,"[1]; oil or lipid, in Propylene glycol monolaurate, 25° C., 24 hours",7.75 mg/mL
same,solubility at 24 h,"[1]; oil or lipid, in Triglycerides, Medium chain, 25° C., 24 hours",1.9 mg/mL
same,solubility at 24 h,"[1]; organic solvent or mixture, in 2-Pyrrolidinone, 25° C., 24 hours",212 mg/mL
same,solubility at 24 h,"[1]; organic solvent or mixture, in Acetonitrile, 25° C., 24 hours",108 mg/mL
same,solubility at 24 h,"[1]; organic solvent or mixture, in Caprylocaproyl polyoxyl-8 glycerides, 25° C., 24 hours",46.7 mg/mL
same,solubility at 24 h,"[1]; organic solvent or mixture, in Diethylene glycol monoethyl ether, 25° C., 24 hours",289 mg/mL
same,solubility at 24 h,"[1]; organic solvent or mixture, in Dimethyl sulfoxide, 25° C., 24 hours",632 mg/mL
same,solubility at 24 h,"[1]; organic solvent or mixture, in Dimethylacetamide, 25° C., 24 hours",80 mg/mL
same,solubility at 24 h,"[1]; organic solvent or mixture, in Ethanol, 25° C., 24 hours",75.3 mg/mL
same,solubility at 24 h,"[1]; organic solvent or mixture, in Glycerol, 25° C., 24 hours",0.84 mg/mL
same,solubility at 24 h,"[1]; organic solvent or mixture, in Lauroyl macrogol-32 glycerides, 25° C., 24 hours",24.1 mg/mL
same,solubility at 24 h,"[1]; organic solvent or mixture, in Methanol, 25° C., 24 hours",178 mg/mL
same,solubility at 24 h,"[1]; organic solvent or mixture, in Oleoyl polyoxyl-6 glycerides, 25° C., 24 hours",4.36 mg/mL
same,solubility at 24 h,"[1]; organic solvent or mixture, in Poloxamer 124, 25° C., 24 hours",66.7 mg/mL
same,solubility at 24 h,"[1]; organic solvent or mixture, in Polyethylene glycol(PEG) 300, 25° C., 24 hours",146 mg/mL
same,solubility at 24 h,"[1]; organic solvent or mixture, in Polyethylene glycol(PEG) 400, 25° C., 24 hours",168 mg/mL
same,solubility at 24 h,"[1]; organic solvent or mixture, in Polyethylene glycol-35 castor oil, 25° C., 24 hours",2.7 mg/mL
same,solubility at 24 h,"[1]; organic solvent or mixture, in Polyoxyl 40 hydrogenated castor oil, 25° C., 24 hours",36 mg/mL
same,solubility at 24 h,"[1]; organic solvent or mixture, in Polysorbate 20, 25° C., 24 hours",48 mg/mL
same,solubility at 24 h,"[1]; organic solvent or mixture, in Polysorbate 40, 25° C., 24 hours",37 mg/mL
same,solubility at 24 h,"[1]; organic solvent or mixture, in Polysorbate 60, 25° C., 24 hours",35 mg/mL
same,solubility at 24 h,"[1]; organic solvent or mixture, in Polysorbate 80, 25° C., 24 hours",11.8 mg/mL
same,solubility at 24 h,"[1]; organic solvent or mixture, in Propylene glycol, 25° C., 24 hours",25 mg/mL
same,solubility at 24 h,"[1]; organic solvent or mixture, in Triacetin, 25° C., 24 hours",56.5 mg/mL
same,solubility at 24 h,"[1]; in Purified water, 25° C., 24 hours",0.05 mg/mL
same,solubility,"[1]; water, background statement",< 0.1 mg/mL
same,solubility,"[2]; aqueous with cosolvent or surfactant or cyclodextrin, in a 10% (w/w) aqueous solution of PEG 400",~0.08 mg/mL
same,solubility in oil,"[2]; oil, background statement",significantly low solubility in oil

# — US11957669B2, “Pharmaceutical composition containing (R)-N-[1-(3,5-difluoro-4-methansulfonylamino-phenyl)-ethyl]-3-(2-propyl-6-trifluoromethyl-pyridin-3-yl)-acrylamide” (AMOREPACIFIC CORPORATION, priority 2017, dated 2024)
